# Data published in patent publication US20250325552A1, “SUBSTITUTED THIADIAZOLYL DERIVATIVES AS DNA POLYMERASE THETA INHIBITORS” (IDEAYA Biosciences, Inc., priority 2020, published 2025).
# Target: Polθ theta (1-899) (hPolQ) (Homo sapiens (Human), UniProt O75417)
# Test: Biological Assay 1: Polθ ATPase activity, NADH oxidation-coupled enzymatic assay (10 nM enzyme, 30 min)
# Format: biochemical
# Details: Polθ (1-899) 10 nM, 100 μM ATP, 300 nM dT50 ssDNA; Examples 1 to 268; read-out: ATPase NADH coupling:Standard Screening:hPolQ IC50
# Method: The ability of the compounds of Formula (I), (II), (III), (IV), or Table 1 (Examples 1 to Example 268) to inhibit ATPase activity of Polθ theta (1-899) was determined using the assay described below.
# Polθ Theta ATPase activity was determined by measuring the rate of ATP turn over in a NADH oxidation-coupled enzymatic assay. 10-point dilution series of compounds were used in a 384 well format for the inhibition assays. Polθ theta (1-899) (10 nM) in assay buffer (20 mM Tris HCl (pH 7.80), 80 mM KCl, 10 mM MgCl2, 1 mM DTT, 0.01% BSA, 0.01% Tween, 5% glycerol) was transferred to the test wells (20 μL), except the low control wells (20 μL of assay buffer was added to the low control wells). The plate was then incubated at room temperature for 15 min. An equal volume (20 μL) of 100 μM ATP, 300 nM dT50 (single-stranded DNA (ssDNA) containing 50 thymine bases), 300 μM NADH, 6 mM PEP, 10 U/mL lactate dehydrogenase and U/mL pyruvate kinase in assay buffer was added to all the test wells. The plate was then centrifuged at 1000 rpm for 1 min. The reaction was monitored for 30 min by measuring absorbance (λ=340 nm) in a Tecan Spark multimode plate reader every minute. The high control (DMSO with enzyme) with low absorbance intensity represents no inhibition of ATPase reaction while the low control (DMSO with buffer) with high absorbance intensity represents full inhibition of ATPase activity. Slope of the reaction progress curves were used to calculate the rate of ATP hydrolysis. The rates were used to determine the percent inhibition using a four-parameter inhibition model to generate IC50, Hill slope and max inhibition.
# Chain of Polθ theta (1-899) (hPolQ) (O75417 1-899): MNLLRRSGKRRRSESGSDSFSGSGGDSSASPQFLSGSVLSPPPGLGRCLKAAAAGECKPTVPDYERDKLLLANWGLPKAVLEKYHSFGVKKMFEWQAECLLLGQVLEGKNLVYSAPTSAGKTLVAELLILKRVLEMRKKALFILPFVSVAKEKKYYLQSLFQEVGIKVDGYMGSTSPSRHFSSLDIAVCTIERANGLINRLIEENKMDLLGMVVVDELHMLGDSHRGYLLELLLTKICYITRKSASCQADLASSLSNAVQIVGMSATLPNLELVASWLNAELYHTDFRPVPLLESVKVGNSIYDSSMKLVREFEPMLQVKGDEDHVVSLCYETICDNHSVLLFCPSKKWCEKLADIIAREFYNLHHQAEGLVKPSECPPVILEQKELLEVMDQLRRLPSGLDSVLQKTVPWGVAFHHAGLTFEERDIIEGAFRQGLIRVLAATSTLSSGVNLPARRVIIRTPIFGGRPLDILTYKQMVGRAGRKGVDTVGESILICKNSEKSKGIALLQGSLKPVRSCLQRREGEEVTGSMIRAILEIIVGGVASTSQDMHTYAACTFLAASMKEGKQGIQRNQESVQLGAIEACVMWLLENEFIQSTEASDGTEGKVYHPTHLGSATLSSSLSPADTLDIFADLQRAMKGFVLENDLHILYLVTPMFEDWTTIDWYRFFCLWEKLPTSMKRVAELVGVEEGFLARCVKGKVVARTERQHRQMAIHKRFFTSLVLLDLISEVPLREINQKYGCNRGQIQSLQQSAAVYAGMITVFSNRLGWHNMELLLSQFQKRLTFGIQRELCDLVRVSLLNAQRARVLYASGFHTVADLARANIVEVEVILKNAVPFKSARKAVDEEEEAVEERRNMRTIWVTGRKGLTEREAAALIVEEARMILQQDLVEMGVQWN
row,Structure (SMILES),IC50 [nM]
1,"COc1cnc(Cl)cc1-c1cc(C)ncc1C(=O)Nc1nnc(OC[C@H]2COC[C@H]2C)s1 (single isomer, unassigned) [Example 267]",≤ 200
2,"COc1cnc(Cl)cc1-c1cc(C)ncc1C(=O)Nc1nnc(OCC23CC(C(C)(C)F)(C2)C3)s1 [Example 163, 2′-chloro-N-(5-((3-(2-fluoropropan-2-yl)bicyclo(1.1.1)pentan-1-yl)methoxy)-1,3,4-thiadiazol-2-yl)-5′-methoxy-6-methyl-(4,4′-bipyridine)-3-carboxamide]",≤ 200
3,"COc1cnc(Cl)cc1-c1cc(C)ncc1C(=O)Nc1nnc(OC[C@@H]2CCO[C@H]2C)s1 (single isomer, unassigned) [Example 180]",≤ 200
4,"COc1cnc(Cl)cc1-c1cc(C)ncc1C(=O)Nc1nnc(OC[C@H]2CC[C@](C)(O)CC2)s1 [Example 214, 2′-chloro-N-(5-(((1r,4r)-4-hydroxy-4-methylcyclohexyl)methoxy)-1,3,4-thiadiazol-2-yl)-5′-methoxy-6-methyl-(4,4′-bipyridine)-3-carboxamide]",≤ 200
5,"COc1cnc(C)c(F)c1-c1cc(C)ncc1C(=O)Nc1nnc(OCC23CCC(O)(CC2)C3)s1 [Example 217, 3′-fluoro-N-(5-((4-hydroxybicyclo(2.2.1)heptan-1-yl)methoxy)-1,3,4-thiadiazol-2-yl)-5′-methoxy-2′,6-dimethyl-(4,4′-bipyridine)-3-carboxamide]",≤ 200
6,"COc1cnc(Cl)cc1-c1cc(C)ncc1C(=O)Nc1nnc(OC[C@@H]2CCO2)s1 (single isomer, unassigned) [Example 169]",≤ 200
7,"COc1cnc(Cl)cc1-c1cc(C)ncc1C(=O)Nc1nnc(OC[C@@H]2CCC[C@H]2O)s1 (single isomer, unassigned) [Example 255, 2′-chloro-N-(5-((2-hydroxycyclopentyl)methoxy)-1,3,4-thiadiazol-2-yl)-5′-methoxy-6-methyl-(4,4′-bipyridine)-3-carboxamide]",≤ 200
8,"COc1cnc(C)cc1-c1cc(C)ncc1C(=O)Nc1nnc(OC[C@H]2CC[C@@H](O)CC2)s1 [Example 127, N-(5-(((1s,4s)-4-hydroxycyclohexyl)methoxy)-1,3,4-thiadiazol-2-yl)-5′-methoxy-2′,6-dimethyl-[4,4′-bipyridine]-3-carboxamide]",≤ 200
9,"COc1cnc(Br)cc1-c1cc(C)ncc1C(=O)Nc1nnc(OC[C@@H]2COCCO2)s1 [Example 235, (S)—N-(5-((1,4-dioxan-2-yl)methoxy)-1,3,4-thiadiazol-2-yl)-2′-bromo-5′-methoxy-6-methyl-(4,4′-bipyridine)-3-carboxamide]",≤ 200
10,"COc1ccccc1-c1cnccc1C(=O)Nc1nnc(OCC2CCOCC2)s1 [compound 1, 3-(2-methoxyphenyl)-N-(5-((tetrahydro-2H-pyran-4-yl)methoxy)-1,3,4-thiadiazol-2-yl)isonicotinamide]",200 to 500
11,"COc1cnc(C)cc1-c1cc(C)ncc1C(=O)Nc1nnc(OC[C@H]2C[C@@H](O)C2)s1 [Example 118, N-(5-(((1s,3s)-3-hydroxycyclobutyl)methoxy)-1,3,4-thiadiazol-2-yl)-5′-methoxy-2′,6-dimethyl-[4,4′-bipyridine]-3-carboxamide]",≤ 200
12,"COc1cnc(Cl)cc1-c1cc(C)ncc1C(=O)Nc1nnc(OCC2COC(CO)CO2)s1 (centres unmarked) [Example 246, 2′-chloro-N-(5-((5-(hydroxymethyl)-1,4-dioxan-2-yl)methoxy)-1,3,4-thiadiazol-2-yl)-5′-methoxy-6-methyl-(4,4′-bipyridine)-3-carboxamide]",≤ 200
13,"COc1cnc(Cl)cc1-c1cc(C)ncc1C(=O)Nc1nnc(OCC2COC(C)(C)CO2)s1 (centres unmarked) [Example 228, 2′-chloro-N-(5-((5,5-dimethyl-1,4-dioxan-2-yl)methoxy)-1,3,4-thiadiazol-2-yl)-5′-methoxy-6-methyl-(4,4′-bipyridine)-3-carboxamide]",≤ 200
14,"COc1cnc(Cl)cc1-c1cc(C)ncc1C(=O)Nc1nnc(OC[C@H]2COC[C@@H]2C)s1 (single isomer, unassigned) [Example 268]",≤ 200

# Results, then the compound that gave them:
row,IC50 [nM],Structure (SMILES)
1,1000 to 10000,"Cc1cc(C2CCOCC2)c(C(=O)Nc2nnc(OCc3ccc(Cl)cn3)s2)cn1 [Example 18, N-(5-((5-chloropyridin-2-yl)methoxy)-1,3,4-thiadiazol-2-yl)-6-methyl-4-(tetrahydro-2H-pyran-4-yl)nicotinamide]"
2,≤ 200,"Cc1cc(-c2cc(Cl)ncc2OC(F)F)c(C(=O)Nc2nnc(OC[C@H]3CCOC3)s2)cn1 (single isomer, unassigned) [Example 257]"
3,≤ 200,"COc1cccc(F)c1-c1cc(C)ncc1C(=O)Nc1nnc(OCc2ccc(C(C)O)cn2)s1 (racemic) [Example 22, 4-(2-fluoro-6-methoxyphenyl)-N-(5-((5-(1-hydroxyethyl)pyridin-2-yl)methoxy)-1,3,4-thiadiazol-2-yl)-6-methylnicotinamide]"
4,≤ 200,"Cc1cc(-c2c(F)cccc2OC(F)F)c(C(=O)Nc2nnc(OCc3cnc(CO)cn3)s2)cn1 [Example 70, 4-(2-(difluoromethoxy)-6-fluorophenyl)-N-(5-((5-(hydroxymethyl)pyrazin-2-yl)methoxy)-1,3,4-thiadiazol-2-yl)-6-methylnicotinamide]"
5,1000 to 10000,"COc1ccccc1-c1cc(C)ncc1C(=O)Nc1nnc(O[C@@H](CO)c2ccc(Cl)cn2)s1 [Example 29, (R)—N-(5-(1-(5-chloropyridin-2-yl)-2-hydroxyethoxy)-1,3,4-thiadiazol-2-yl)-4-(2-methoxyphenyl)-6-methylnicotinamide]"
6,≤ 200,"CCc1cc(-c2cc(C)ncc2C(=O)Nc2nnc(OCc3ccc(C(C)(C)O)cn3)s2)c(OC)cn1 [Example 106, 2′-ethyl-N-(5-((5-(2-hydroxypropan-2-yl)pyridin-2-yl)methoxy)-1,3,4-thiadiazol-2-yl)-5′-methoxy-6-methyl-[4,4′-bipyridine]-3-carboxamide]"
7,≤ 200,"COc1cnc(C)cc1-c1cc(C)ncc1C(=O)Nc1nnc(OCc2ccc(C(C)(C)OC)cn2)s1 [Example 126, 5′-methoxy-N-(5-((5-(2-methoxypropan-2-yl)pyridin-2-yl)methoxy)-1,3,4-thiadiazol-2-yl)-2′,6-dimethyl-(4,4′-bipyridine)-3-carboxamide]"
8,≤ 200,"Cc1cc(-c2c(F)cccc2OC(F)F)c(C(=O)Nc2nnc(OCc3ccc4c(n3)OCCO4)s2)cn1 [Example 47, 4-(2-(difluoromethoxy)-6-fluorophenyl)-N-(5-((2,3-dihydro-(1,4)dioxino(2,3-b)pyridin-6-yl)methoxy)-1,3,4-thiadiazol-2-yl)-6-methylnicotinamide]"
9,≤ 200,"COc1cnc(Cl)cc1-c1cc(C)ncc1C(=O)Nc1nnc(OCc2ccc(C3(C)COC3)cn2)s1 [Example 86, 2′-chloro-5′-methoxy-6-methyl-N-(5-((5-(3-methyloxetan-3-yl)pyridin-2-yl)methoxy)-1,3,4-thiadiazol-2-yl)-[4,4′-bipyridine]-3-carboxamide]"
10,1000 to 10000,"COc1cccc(F)c1-c1cn2ncc(C)c2cc1C(=O)Nc1nnc(OC[C@H]2CC[C@H](O)CC2)s1 [Example 194, 6-(2-fluoro-6-methoxyphenyl)-N-(5-(((1r,4r)-4-hydroxycyclohexyl)methoxy)-1,3,4-thiadiazol-2-yl)-3-methylpyrazolo(1,5-a)pyridine-5-carboxamide]"
11,500 to 1000,"COc1ccccc1-c1cc(C)ncc1C(=O)Nc1nnc(O[C@H](CO)c2ccc(Cl)cn2)s1 [Example 30, (S)—N-(5-(1-(5-chloropyridin-2-yl)-2-hydroxyethoxy)-1,3,4-thiadiazol-2-yl)-4-(2-methoxyphenyl)-6-methylnicotinamide]"
12,≤ 200,"COc1cccc(F)c1-c1cc(C)ncc1C(=O)Nc1nnc(OCc2cnc(CO)cn2)s1 [Example 97, 4-(2-fluoro-6-methoxyphenyl)-N-(5-((5-(hydroxymethyl)pyrazin-2-yl)methoxy)-1,3,4-thiadiazol-2-yl)-6-methylnicotinamide]"
13,≤ 200,"COc1cccc(F)c1-c1cc(C)ncc1C(=O)Nc1nnc(OCc2ccc([C@H](C)OC)cn2)s1 [Example 93, 4-(2-fluoro-6-methoxyphenyl)-N-(5-((5-((S)-1-methoxyethyl)pyridin-2-yl)methoxy)-1,3,4-thiadiazol-2-yl)-6-methylnicotinamide]"
14,≤ 200,"Cc1cc(-c2cc(Cl)ncc2OC(F)F)c(C(=O)Nc2nnc(OCC3CCOC3)s2)cn1 (racemic) [Example 259, 2′-chloro-5′-(difluoromethoxy)-6-methyl-N-(5-((tetrahydrofuran-3-yl)methoxy)-1,3,4-thiadiazol-2-yl)-(4,4′-bipyridine)-3-carboxamide]"
15,200 to 500,"COc1cccc(F)c1-c1cc2ncn(C)c2cc1C(=O)Nc1nnc(OC[C@H]2CC[C@H](O)CC2)s1 [Example 200, 5-(2-fluoro-6-methoxyphenyl)-N-(5-(((1r,4r)-4-hydroxycyclohexyl)methoxy)-1,3,4-thiadiazol-2-yl)-1-methyl-1H-benzo(d)imidazole-6-carboxamide]"
